From publication PMC9516332 (Frontiers in Oncology, 2022)
Where two headings read alike, the source gives them in different places.

Columns and labels:
[1] = molecular target: T1, panel of 255 wild-type kinases (Homo sapiens, UniProt Q96PF2); test: Kinase panel profiling at 1 µmol/L (MSA or IMAP), percentage inhibition; format: biochemical; details: kinase TSSK2; 1 µmol/L single concentration; read-out: %-inhibition at 1 µmol/L, TSSK2
T1 sequence (Q96PF2 1-358): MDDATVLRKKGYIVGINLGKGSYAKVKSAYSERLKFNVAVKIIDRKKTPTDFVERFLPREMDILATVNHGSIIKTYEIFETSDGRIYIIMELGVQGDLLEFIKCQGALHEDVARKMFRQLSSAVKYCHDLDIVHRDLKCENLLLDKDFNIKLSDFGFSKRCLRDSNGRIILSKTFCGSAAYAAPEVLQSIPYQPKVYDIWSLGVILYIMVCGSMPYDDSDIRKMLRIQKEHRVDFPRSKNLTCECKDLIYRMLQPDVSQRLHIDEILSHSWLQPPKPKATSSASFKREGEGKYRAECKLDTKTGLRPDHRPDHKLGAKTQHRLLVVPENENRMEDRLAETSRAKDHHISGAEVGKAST

[2] = molecular target: panel of 255 wild-type kinases (Homo sapiens, UniProt Q9Y463); test: as above; format: biochemical; details: kinase DYRK1B; 1 µmol/L single concentration; read-out: %-inhibition at 1 µmol/L, DYRK1B
[3] = molecular target: panel of 255 wild-type kinases (Homo sapiens, UniProt P31749); test: as above; format: biochemical; details: AKT1 kinase assay; 1 µmol/L single concentration; read-out: %-inhibition AKT1
[4] = molecular target: panel of 255 wild-type kinases (Homo sapiens, UniProt P08581); test: as above; format: biochemical; details: MET; 1 µmol/L single concentration
[5] = test system: 134 cancer cell lines; test: Cell viability assay (ATPlite, 72 hours), IC50 on cancer cell line panel

inhibition at 1 µM [1]: -5%
inhibition at 1 µM [2]: -7%
inhibition at 1 µM [3]: -5%
inhibition at 1 µM [4]: 0.851%
IC50 ([5]; HEC-6, read-out: IC50 in cell proliferation assay, HEC-6 cell line (EGFR p.A289V)): > 31600 nM
IC50 ([5]; Homo sapiens, 769-P, read-out: IC50 in cell proliferation assay, cell line 769-P): 229 nM
IC50 ([5]; Homo sapiens, 786-0, read-out: IC50 in cell proliferation assay, cell line 786-O): > 31600 nM
IC50 ([5]; Homo sapiens, A 172, read-out: IC50 in cell proliferation assay, cell line A-172): 20000 nM
IC50 ([5]; Homo sapiens, A204, read-out: IC50 in cell proliferation assay, cell line A-204): > 31600 nM
IC50 ([5]; Homo sapiens, A498, read-out: IC50 in cell proliferation assay, cell line A-498): 53 nM
IC50 ([5]; Homo sapiens, A549, read-out: IC50 in cell proliferation assay, cell line A-549): 92 nM
IC50 ([5]; Homo sapiens, A704, read-out: IC50 in cell proliferation assay, cell line A-704): > 31600 nM
IC50 ([5]; Homo sapiens, A-375, read-out: IC50 in cell proliferation assay, cell line A-375 (BRAF p.V600E)): 86 nM
IC50 ([5]; Homo sapiens, A-427, read-out: IC50 in cell proliferation assay, cell line A-427): 625 nM
IC50 ([5]; Homo sapiens, ACHN, read-out: IC50 in cell proliferation assay, cell line ACHN): 32 nM
IC50 ([5]; Homo sapiens, AN3-CA, read-out: IC50 in cell proliferation assay, cell line AN3-CA (FGFR2 p.N549K)): 12800 nM
IC50 ([5]; Homo sapiens, ASPC1, read-out: IC50 in cell proliferation assay, cell line AsPC-1): 116 nM
IC50 ([5]; Homo sapiens, AU565, read-out: IC50 in cell proliferation assay, cell line AU565 (ERBB2 amplification)): > 31600 nM
IC50 ([5]; Homo sapiens, BT-20, read-out: IC50 in cell proliferation assay, cell line BT-20): > 31600 nM
IC50 ([5]; Homo sapiens, BT-474, read-out: IC50 in cell proliferation assay, cell line BT-474 (ERBB2 amplification)): > 31600 nM
IC50 ([5]; Homo sapiens, BT-549, read-out: IC50 in cell proliferation assay, cell line BT-549): 8680 nM
IC50 ([5]; Homo sapiens, BXPC-3, read-out: IC50 in cell proliferation assay, cell line BxPC-3): 24 nM
IC50 ([5]; Homo sapiens, C-33-A, read-out: IC50 in cell proliferation assay, cell line C-33 A): 72 nM
IC50 ([5]; Homo sapiens, CAL-27, read-out: IC50 in cell proliferation assay, cell line CAL-27): 117 nM
IC50 ([5]; Homo sapiens, CCF-STTG1, read-out: IC50 in cell proliferation assay, cell line CCF-STTG1): > 31600 nM
IC50 ([5]; Homo sapiens, CCRF-CEM, read-out: IC50 in cell proliferation assay, cell line CCRF-CEM): > 31600 nM
IC50 ([5]; Homo sapiens, COLO 205, read-out: IC50 in cell proliferation assay, cell line COLO 205 (BRAF p.V600E)): 31 nM
IC50 ([5]; Homo sapiens, COLO-829, read-out: IC50 in cell proliferation assay, cell line COLO 829 (BRAF p.V600E)): 125 nM
IC50 ([5]; Homo sapiens, DLD-1, read-out: IC50 in cell proliferation assay, cell line DLD-1): 522 nM
IC50 ([5]; Homo sapiens, DU-4475, read-out: IC50 in cell proliferation assay, cell line DU4475 (BRAF p.V600E)): 38 nM
IC50 ([5]; Homo sapiens, Daoy, read-out: IC50 in cell proliferation assay, cell line Daoy): 3980 nM
IC50 ([5]; Homo sapiens, DoTc2-4510, read-out: IC50 in cell proliferation assay, cell line DoTc2 4510): 113 nM
IC50 ([5]; Homo sapiens, EOL1, read-out: IC50 in cell proliferation assay, cell line EoL-1 (FIP1L1-PDGFRA)): 82 nM
IC50 ([5]; Homo sapiens, FaDu, read-out: IC50 in cell proliferation assay, cell line FaDu): 47 nM
IC50 ([5]; Homo sapiens, G-361, read-out: IC50 in cell proliferation assay, cell line G-361 (BRAF p.V600E)): 144 nM
IC50 ([5]; Homo sapiens, HCC827, read-out: IC50 in cell proliferation assay, cell line HCC827 (EGFR exon19del)): 268 nM
IC50 ([5]; Homo sapiens, HCC4006, read-out: IC50 in cell proliferation assay, cell line HCC4006 (EGFR exon19del)): 26600 nM
IC50 ([5]; Homo sapiens, HCT-15, read-out: IC50 in cell proliferation assay, cell line HCT 15): 1070 nM
IC50 ([5]; Homo sapiens, HCT-116, read-out: IC50 in cell proliferation assay, cell line HCT 116): 525 nM
IC50 ([5]; Homo sapiens, HEC-1, read-out: IC50 in cell proliferation assay, HEC-1 cell line): > 31600 nM
IC50 ([5]; Homo sapiens, HEC-1B, read-out: IC50 in cell proliferation assay, HEC-1-B cell line (EGFR p.A864V)): 12 nM
IC50 ([5]; Homo sapiens, HL-60, read-out: IC50 in cell proliferation assay, HL-60 cell line): 5 nM
IC50 ([5]; Homo sapiens, HT, read-out: IC50 in cell proliferation assay, HT cell line): > 31600 nM
IC50 ([5]; Homo sapiens, HT-1080, read-out: IC50 in cell proliferation assay, HT-1080 cell line): 27 nM
IC50 ([5]; Homo sapiens, Hs746T, read-out: IC50 in cell proliferation assay, Hs 746.T cell line (MET exon14skip + amplification)): 12500 nM
IC50 ([5]; Homo sapiens, Hs-578T, read-out: IC50 in cell proliferation assay, Hs 578T cell line): 143 nM
IC50 ([5]; Homo sapiens, HuTu80, read-out: IC50 in cell proliferation assay, HuTu 80 cell line): 3320 nM
IC50 ([5]; Homo sapiens, J82, read-out: IC50 in cell proliferation assay, J82 cell line): 200 nM
IC50 ([5]; Homo sapiens, Jurkat E6.1, read-out: IC50 in cell proliferation assay, Jurkat E6.1 cell line): > 31600 nM
IC50 ([5]; Homo sapiens, K562, read-out: IC50 in cell proliferation assay, K-562 cell line): 383 nM
IC50 ([5]; Homo sapiens, KATO III, read-out: IC50 in cell proliferation assay, KATO III cell line (FGFR2 amplification)): 5400 nM
IC50 ([5]; Homo sapiens, KG-1, read-out: IC50 in cell proliferation assay, KG-1 cell line (FGFR1OP2-FGFR1)): 404 nM
IC50 ([5]; Homo sapiens, KLE, read-out: IC50 in cell proliferation assay, KLE cell line): > 31600 nM
IC50 ([5]; Homo sapiens, KMS-11, read-out: IC50 in cell proliferation assay, KMS-11 cell line (FGFR3 p.Y373C)): > 31600 nM
IC50 ([5]; Homo sapiens, KU812, read-out: IC50 in cell proliferation assay, Ku812 cell line): 30 nM
IC50 ([5]; Homo sapiens, Kasumi 1, read-out: IC50 in cell proliferation assay, Kasumi-1 cell line (KIT p.N822K)): 192 nM
IC50 ([5]; Homo sapiens, LC-2-ad, read-out: IC50 in cell proliferation assay, LC-2/ad cell line (CCDC6-RET)): 84 nM
IC50 ([5]; Homo sapiens, LNCaP-Clone-FGC, read-out: IC50 in cell proliferation assay, LNCaP clone FGC cell line): > 31600 nM
IC50 ([5]; Homo sapiens, LS174T, read-out: IC50 in cell proliferation assay, LS174T cell line): 70 nM
IC50 ([5]; Homo sapiens, LS-411N, read-out: IC50 in cell proliferation assay, LS411N cell line (BRAF p.V600E)): 61 nM
IC50 ([5]; Homo sapiens, LoVo, read-out: IC50 in cell proliferation assay, LoVo cell line): 23 nM
IC50 ([5]; Homo sapiens, MCF7, read-out: IC50 in cell proliferation assay, MCF-7 cell line): > 31600 nM
IC50 ([5]; Homo sapiens, MDA-MB-231, read-out: IC50 in cell proliferation assay, MDA-MB-231 cell line): 1010 nM
IC50 ([5]; Homo sapiens, MDA-MB-453, read-out: IC50 in cell proliferation assay, MDA-MB-453 cell line): > 31600 nM
IC50 ([5]; Homo sapiens, MDA-MB-468, read-out: IC50 in cell proliferation assay, MDA-MB-468 cell line): 64 nM
IC50 ([5]; Homo sapiens, MG-63, read-out: IC50 in cell proliferation assay, MG-63 cell line): 2220 nM
IC50 ([5]; Homo sapiens, MIA PaCa-2, read-out: IC50 in cell proliferation assay, MIA PaCa-2 cell line): 140 nM
IC50 ([5]; Homo sapiens, MKN-45, read-out: IC50 in cell proliferation assay, MKN45 cell line (MET amplification)): 1150 nM
Compound: Cn1cnc2c(F)c(Nc3ccc(Br)cc3F)c(C(=O)NOCCO)cc21 [binimetinib]
